Reference: publication PMC6104695 (Virulence, 2017)
Values after ≈ are worked out from the molar mass of the structure shown. Values joined by “and” are separate entries in the source; they are usually repeats but may differ in a detail not shown here. Identical values can stand only once. Ends that are not written are not given here. Peptide text beside a SMILES is read from it.

What was measured:
[1] = test system: B. anthracis Sterne vegetative bacteria; conditions: 24 h
[2] = test system: B. anthracis Sterne spores; assay: microbe, parasite or virus in culture; conditions: Bacillus anthracis, 3 h, pH 7.4, read-out: Sporicidal EC50 (95% Confidence Interval)
[3] = test system: B. anthracis Sterne spores; parameters: species or system Galleria mellonella; conditions: in vivo
[4] = test system: B. anthracis; conditions: mouse, in vivo, sc; cited from earlier work

Molecule | MIC [1] [µM] | further results
CC[C@H](C)[C@H](NC(=O)[C@H](CCCCN)NC(=O)[C@H](CCC(=O)O)NC(=O)[C@H](CCCCN)NC(=O)[C@H](CO)NC(=O)[C@H](CCCCN)NC(=O)[C@H](CCCNC(=N)N)NC(=O)[C@H](Cc1ccccc1)NC(=O)[C@H](Cc1ccccc1)NC(=O)[C@H](CC(=O)O)NC(=O)CNC(=O)[C@H](CC(C)C)NC(=O)[C@@H](N)CC(C)C)C(=O)NCC(=O)N[C@@H](CCCCN)C(=O)N[C@@H](CCC(=O)O)C(=O)N[C@@H](Cc1ccccc1)C(=O)N[C@@H](CCCCN)C(=O)N[C@@H](CCCNC(=N)N)C(=O)N[C@H](C(=O)N[C@H](C(=O)N[C@@H](CCC(N)=O)C(=O)N[C@@H](CCCNC(=N)N)C(=O)N[C@H](C(=O)N[C@@H](CCCCN)C(=O)N[C@@H](CC(=O)O)C(=O)N[C@@H](Cc1ccccc1)C(=O)N[C@@H](CC(C)C)C(=O)N[C@@H](CCCNC(=N)N)C(=O)N[C@@H](CC(N)=O)C(=O)N[C@@H](CC(C)C)C(=O)N[C@H](C(=O)N1CCC[C@H]1C(=O)N[C@@H](CCCNC(=N)N)C(=O)N[C@H](C(=O)N[C@@H](CCC(=O)O)C(=O)N[C@@H](CO)C(=O)O)[C@@H](C)O)C(C)C)[C@@H](C)CC)C(C)C)[C@@H](C)CC [LL-37] | 7.12 (≈ 32 µg/mL) | –
GLKLRFEFSKIKGEFLKTPEVRFRDIKLKDNRISVQR [Scrambled LL-37] | >150 | –
O=C(O)c1cn(C2CC2)c2cc(N3CCNCC3)c(F)cc2c1=O [Ciprofloxacin] | – | EC50 [2]: 70.8 µg/mL and > 100 µM; Rescue of infected waxworms by ciprofloxacin [3]: 100%; Survival (%) of B. anthracis infected G. mellonella larvae [3]: 100%
GLLRKGGEKIGEKLKKIGQKIKNFFQKLVPQPEQ [mCRAMP] | 16.5 | –
CC(C)C[C@H](NC(=O)[C@H](CCCNC(=N)N)NC(=O)CNC(=O)CNC(=O)[C@@H](N)CCCNC(=N)N)C(=O)N[C@@H](CS)C(=O)N[C@@H](Cc1ccc(O)cc1)C(=O)N[C@@H](CS)C(=O)N[C@@H](CCCNC(=N)N)C(=O)N[C@@H](CCCNC(=N)N)C(=O)N[C@@H](CCCNC(=N)N)C(=O)N[C@@H](Cc1ccccc1)C(=O)N[C@@H](CS)C(=O)N[C@H](C(=O)N[C@@H](CS)C(=O)N[C@H](C(=O)NCC(=O)N[C@@H](CCCNC(=N)N)C(=O)O)C(C)C)C(C)C [PG-1] (H-RGGRLCYCRRRFCVCVGR-OH; N-terminus and C-terminus assumed) | 7.41 (≈ 16 µg/mL) | Survival of infected mice [4]: 80%
